Measured values: US12377087B2, “Compounds for the treatment of cancer” (UNIVERSITY OF LOUISVILLE RESEARCH FOUNDATION, INC., priority 2015, dated 2025)

Key:
[1] = tested on: H460 cells; assay: Glycolysis assay (3H2O from 5-[3H]glucose) in H460 cells; type: cell-based, human; details: H460, indicated concentrations of MPN-2, 48 hours
Procedure: Cells growing in 6-well plates were incubated in 500 μl of complete medium containing 1 μCi of 5-[^3H]glucose per well for 60 min in 5% CO2 at 37° C. Media was collected, ^3H2O formed via glycolysis from the 5-[^3H]glucose measured and counts normalized as previously described. For example, the medium was then collected and centrifuged to pellet any suspended cells. To separate the ^3H2O formed via glycolysis from the 5-[^3H]glucose added to the medium, an evaporation technique in a sealed system was utilized. Briefly, 150 μl aliquots of medium were added to open tubes that were placed upright inside scintillation vials containing 1 ml of H2O. The scintillation vials were sealed, and the ^3H2O produced by glycolysis through enolase and released to the medium was allowed to equilibrate with the H2O in the outer vial for 48 h at 37° C. The amounts of ^3H2O that had diffused into the surrounding H2O was measured on a Tri-Carb 2910 liquid scintillation analyzer (Perkin Elmer) and compared with ^3H2O and 5-[^3H]glucose standards. Protein concentration was determined using the BCA assay and counts were normalized to protein concentration. All data are expressed as the mean±SD of three experiments. Statistical significance was assessed by the two-sample t test (independent variable).

[2] = tested on: Lewis lung carcinomas; assay: Lewis lung carcinoma tumor growth in mice; type: in vivo, C57BL/6 mice; details: C57BL/6 mice, intraperitoneal injection 10 mg/kg daily, eleven days
[3] = oral and intravenous pharmacokinetics of MPN-2; type: in vivo; details: CD-1 mice (N=3)
[4] = tested on: H460 cells; assay: ATP measurements in H460 cells; type: cell-based, human; details: H460, indicated concentrations of MPN-2, 48 hours
Procedure: Cells were lysed and intracellular ATP determined as described previously. For example, cells were washed (while still adherent) with cold PBS 1×, lysed with Passive Lysis Buffer (1×; Molecular Probes, Invitrogen) added directly to the plates, and immediately harvested by scraping. The lysates were flash frozen (to −80° C.) and thawed (to 37° C.) once to accomplish complete lysis and then centrifuged (at 4° C.) for 30 seconds to clear the lysates. Intracellular ATP levels were determined using a bioluminescence assay (Molecular Probes), utilizing recombinant firefly luciferase and its substrate, D-luciferin. The luminescence was read in a TD-20/20 luminometer (Turner Designs) at 560 nm. The ATP values were calculated using an ATP standard curve. The protein concentrations of the lysates were estimated using the BCA assay (Pierce Biotechnology) and ATP was expressed as pmol/μg protein. All data are expressed as the mean±SD of three experiments. Statistical significance was assessed by the two-sample t test (independent variable).

[5] = tested on: H460 cells; assay: proliferation / viable cell count (trypan blue) of H460 cells; type: cell-based, human; details: for proliferation of H460 NSCLC cells, viable cells by Trypan blue exclusion: increasing concentrations, counts at 48 hours shown
Procedure: Cell Viability: Cells were incubated in 20% trypan blue (Sigma) for 5 minutes. Cells excluding trypan blue were counted using a standard hemocytometer (Hausser Scientific) to determine total numbers of viable cells. Data are expressed as mean±SD of three experiments. Proliferation Assays: H460 non-small cell lung cancer cells were plated in 24 well plates and exposed to increasing concentrations of the indicated inhibitors of Formula IV (FBR1-02 corresponds to [drawing 47] DMSO was used as vehicle. After 24, 48 and 72 hours of exposure, cells were detached and viable cells were counted by Trypan blue exclusion (representative counts at 48 hours shown).

[6] = tested on: SK-BR-3; assay: proliferation of SK-BR-3 cells; type: cell-based; details: SK-BR-3, 24-72 hours (72 hours shown)
Procedure: Cell Viability: Cells were incubated in 20% trypan blue (Sigma) for 5 minutes. Cells excluding trypan blue were counted using a standard hemocytometer (Hausser Scientific) to determine total numbers of viable cells. Data are expressed as mean±SD of three experiments.

[7] = tested on: H460 cells; assay: F2,6BP measurements in H460 cells; type: cell-based, human; details: H460, indicated concentrations of MPN-2
Procedure: F2,6BP measurements: Cells or tissues were prepared as previously described and F2,6BP content measured using a coupled enzyme reaction following the method of Van Schaftingen et at (Van Schaftingen E et al. A kinetic study of pyrophosphate: fructose-6-phosphate phosphotransferase from potato tubers. Application to a microassay of fructose 2,6-bisphosphate. Eur J Biochem 1982 December; 129(1): 191-5) and normalized to total cellular protein measured by the bicinchoninic acid assay (BCA, Thermo Scientific). […] In order to measure F2,6BP, cells were harvested, washed with PBS, lysed in NaOH/Tris acetate by heating at 80° C. and lysates neutralized to pH 7.2. F2,6BP content was measured using a coupled enzyme reaction following the method of Van Schaftingen et al (Eur J Biochem. 1982; 129(1): 191-195). The F2,6BP concentration was normalized to total cellular protein measured by the bicinchoninic acid assay (BCA, Thermo Scientific) All data are expressed as the mean±SD of three experiments. Statistical significance was assessed by the two-sample t test (independent variable).

Row | Compound | intracellular glycolysis [1] | tumor growth of Lewis lung carcinomas [2] | oral bioavailability [3] | ATP production [4] | proliferation ([5]; H460, 24-72 hours (72 hours shown)) | proliferation, viable cells ([5]; H460 NSCLC, 48 hours and 72 hours) | proliferation [6] | F2,6BP production [7] | proliferation of H460 NSCLC cells, viable cells by Trypan blue exclusion [5]
1 | 5-[(8-methoxy-2-methylquinolin-1-ium-4-yl)amino]pentyl nitrate [MPN-2] | significantly decreased | suppressed the growth | high oral bioavailability | significantly decreased | decreased proliferation | decreased the proliferation | decreased proliferation | significantly inhibited | 
2 | O=[N+]([O-])OCCCCCNc1ccnc2ccccc12 [FBR1-02] |  |  |  |  |  |  |  |  | decreased proliferation of cancer cells
3 | COc1cccc2c(NCCCCCNS(C)(=O)=O)ccnc12 [FBR1-09] |  |  |  |  |  |  |  |  | decreased proliferation of cancer cells
